For this assay, the system named is metastatic NSCLC (patients with lung adenocarcinoma or large-cell carcinoma). Briefly: Customized treatment of metastatic NSCLC according to EGFR mutations and BRCA1 mRNA levels: survival. Format: in vivo. Particulars: median follow-up of 10 months. As to the method: Background: A study was carried out wherein treatment of metastatic NSCLC was customized according to the presence of EGFR mutations and BRCA1 mRNA levels.
Methods: 93 patients with lung adenocarcinoma or large-cell carcinoma were screened for EGFR Δ746-750 deletion and L858R mutation and BRCA1 mRNA expression. 15 patients with the L858R mutation in the EGFR gene received erlotinib; 78 patients without the L858R mutation in the EGFR gene received chemotherapy according to BRCA1 levels (low: gemcitabine/cisplatin; intermediate: docetaxel/cisplatin; high: docetaxel alone). In addition, Abraxas and RAP80 mRNA expression were examined in 60/78 patients without the L858R mutation. The features of the patients are collected in Tables I and II.

On to `C#Cc1cccc(Nc2ncnc3cc(OCCOC)c(OCCOC)cc23)c1` [erlotinib], for which the median survival result (11 patients with EGFR mutations (received erlotinib)) was “not reached”.
As for `CC(=O)O[C@@]12CO[C@@H]1C[C@H](O)[C@@]1(C)C(=O)[C@H](O)C3=C(C)[C@@H](OC(=O)[C@H](O)[C@@H](NC(=O)OC(C)(C)C)c4ccccc4)C[C@@](O)([C@@H](OC(=O)c4ccccc4)[C@H]21)C3(C)C` [docetaxel], where the note is “12 patients with high BRCA1 levels (received docetaxel alone)”, the median survival was 11 months.
For the molecule docetaxel/cisplatin, where the note is “34 patients with intermediate BRCA1 levels (received docetaxel/cisplatin)”, the median survival was found to be 9 months.
On to gemcitabine/cisplatin, for which the median survival entry (32 patients with low BRCA1 levels (received gemcitabine/cisplatin)) is “not reached”.

Values taken from patent US20110142961A1, “METHODS AND REAGENTS FOR PREDICTING CLINICAL OUTCOME AND CUSTOMIZING CHEMOTHERAPY IN LUNG CANCER PATIENTS” (Pangaea Biotech S.A., priority 2008, published 2011).
